Tests used:
[1] = tested on: waterplantain; experiment: Test F flood (paddy) test; type: in vivo, Alisma plantago-aquatica; conditions: 21 d, scale 0-100
Description: Three plastic pots (ca. 16-cm diameter) per rate were partially filled with sterilized Tama silt loam soil comprising a 35:50:15 ratio of sand, silt and clay and 2.6% organic matter. Separate plantings for each of the three pots were as follows. Seeds from the U.S. of monochoria (Monochoria vaginalis), sedge, umbrella (small-flower umbrella sedge, Cyperus difformis), bulrush, […] bulrush, Scirpus juncoides), and […] (purple […] coccinea), were planted into one 16-cm pot for each rate. Seeds from the U.S. of flatsedge, rice (rice flatsedge, Cyperus iria), sprangletop, Brdd. (bearded sprangletop, Leptochloa fascicularis), one stand of 9 or 10 water seeded rice seedlings (Rice, W.S. Jap, Oryza sativa cv. 'Japonica-[…]' or Rice, W.S. Ind, 'Indica'), and two stands of 3 or 4 seedlings of rice, transplanted (transplanted rice, Oryza sativa cv. 'Japonica-[…]') were planted into one 16-cm pot for each rate. Seeds from the U.S. of barnyardgrass (Echinochloa crus-galli), […] (common […], Alisma plantago-aquatica), and watergrass, late (late watergrass, Echinochloa oryzicola) were planted into one 16-cm pot for each rate. Plantings were sequential so that crop and weed species were at the 2.0 to 2.5-leaf stage at time of treatment. Potted plants were grown in a greenhouse with day/night temperature settings of 30/27° C., and supplemental balanced lighting was provided to maintain a 16-h photoperiod. Test pots were maintained in the greenhouse until test completion. At time of treatment, test pots were flooded to 3 cm above the soil surface, treated by application of test compounds directly to the paddy water, and then maintained at that water depth for the duration of the test. Effects of treatments on rice and weeds were visually evaluated by comparison to untreated controls after 21 d. Plant response ratings, summarized in Table F, are based on a scale of 0 to 100 where 0 is no effect and 100 is complete control. A dash (-) response means no test result.

[2] = tested on: corn (ZEAMD); experiment: Test H preemergence mixture test (Colby); type: in vivo, Zea mays; conditions: for Plant response rating, Obsd., ZEAMD: 21 d after treatment, scale 0 to 100; for ZEAMD Obsd.: applied alone, 21 d, mean of three replicates, scale 0-100
[3] = tested on: small-flower umbrella sedge (CYPDI); experiment: Test G paddy mixture test (Colby); type: in vivo, Cyperus difformis; conditions: applied alone, 14 d; for CYPDI Obsd.: scale 0-100; for CYPDI Obsd. plant response rating (scale 0 to 100): flooded
In short: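 Weeds sown in Tama soil tubs; barnyardgrass and transplanted japonica rice grown in plug flats. Treated at 2.0–2.5 leaf stage; visual rating 0–100 versus controls after 14 d in greenhouse. Expected mixture effect calculated with Colby's equation; rates in g a.i. per area.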

[4] = tested on: transplanted japonica rice (ORYSA); experiment: Test G paddy mixture test (Colby); type: in vivo, Oryza sativa; conditions: applied alone, 14 d; for ORYSA Obsd.: scale 0-100; for ORYSA Obsd. plant response rating (scale 0 to 100): flooded
Method: Seeds of small-flower umbrella […], Cyperus difformis) and […], Heteranthera limosa) were sown on the soil surface in two separate quadrants of 11-cm (4-inch) tubs filled with steam pasteurized Tama soil. Simultaneously, plantings of […], Echinochloa crus-galli) and transplanted japonica rice (ORYSA, Oryza sativa) were established in separate “plug” flats. […] Herbicide application timing was targeted at the 2.0 to 2.5 leaf stage and the plants were treated with test chemicals formulated in a non-phytotoxic solvent. Treated plants and controls were maintained in a greenhouse for 14 d, after which time all species were compared to controls and visually evaluated. Plant response ratings are summarized in Tables G1 through G12, and are based on a scale of 0 to 100 where 0 is no effect and 100 is complete control. A dash (-) response means no test result. Colby's Equation was used to determine the herbicidal effects expected from the mixtures. Colby's Equation (Colby, S. R. “Calculating Synergistic and Antagonistic Responses of Herbicide Combinations,” Weeds, 15(1), pp 20-22 (1967)) calculates the expected additive effect of herbicidal mixtures and for two active ingredients is of the form: Pa+b=Pa+Pb-(PaPb/100) where • Pa+b is the percentage effect of the mixture expected from additive contribution of the individual components: • Pa is the observed percentage effect of the first active ingredient at the same use rate as in the mixture, and • Pb is the observed percentage effect of the second active ingredient at the same use rate as in the mixture. In the following Tables, rates are shown in grams of active ingredient per […]); “Obsd.” is the observed effect. “Exp.” is the expected effect calculated from Colby's Equation.

O=C1NCCC1C(=O)N(c1ccc(F)c(F)c1)c1ccccc1F (centres unmarked) [Compound 5, N-(3,4-difluorophenyl)-N-(2-fluorophenyl)-2-oxo-3-pyrrolidinecarboxamide]
Plant response rating, Waterplantain ([1]; 125 g ai/ha): 55 | Plant response rating, Waterplantain ([1]; 250 g ai/ha): 70 | Plant response rating, Waterplantain ([1]; 500 g ai/ha): 80 | Plant response rating, Waterplantain ([1]; 1000 g ai/ha): 85 | Plant response rating, Waterplantain ([1]; 2000 g ai/ha): 90

O=C1NCC(c2ccc(C(F)(F)F)cc2)C1C(=O)Nc1cccc(F)c1F (centres unmarked) [Compound 80, N-(2,3-difluorophenyl)-2-oxo-4-[4-(trifluoromethyl)phenyl]-3-pyrrolidinecarboxamide]
Plant response rating, Obsd., ZEAMD ([2]; Cmpd 80 alone 62 g a.i./ha): 17 | Plant response rating, Obsd., ZEAMD ([2]; Cmpd 80 alone 125 g a.i./ha): 13 | ZEAMD Obsd. ([2]; 62 g a.i./ha): 17 | ZEAMD Obsd. ([2]; 125 g a.i./ha): 13

O=C1NC[C@H](c2cccc(C(F)(F)F)c2)[C@H]1C(=O)Nc1ccccc1F [Compound 204, (3R,4S)—N-(2-fluorophenyl)-2-oxo-4-[3-(trifluoromethyl)phenyl]-3-pyrrolidinecarboxamide]
CYPDI Obsd. ([3]; 125 g a.i./ha): 0 | CYPDI Obsd. plant response rating (scale 0 to 100) ([3]; 125 g a.i./ha): 0 | CYPDI Obsd. ([3]; 500 g a.i./ha): 0 | CYPDI Obsd. plant response rating (scale 0 to 100) ([3]; 500 g a.i./ha): 0 | ORYSA Obsd. ([4]; 125 g a.i./ha): 0 | ORYSA Obsd. plant response rating (scale 0 to 100) ([4]; 125 g a.i./ha): 0 | ORYSA Obsd. ([4]; 500 g a.i./ha): 0 | ORYSA Obsd. plant response rating (scale 0 to 100) ([4]; 500 g a.i./ha): 0

Reference: patent US10294202B2, “Pyrrolidinones as herbicides” (FMC Corporation, priority 2013, dated 2019)
